# Values of other authors in US20240252580A1, “AMINO ACID HYDRATION FORMULATION AND METHOD OF USE” (The Coca-Cola Company, priority 2021, published 2024).
# Peptide text beside a SMILES is read from it.
# Details: for effect on sodium and water absorption from the human jejunum: perfusion technique; for dependence of sodium and water absorption on amino acid concentration: saturation not demonstrated over the range of concentrations
Compound,effect on sodium and water absorption from the human jejunum,dependence of sodium and water absorption on amino acid concentration
"C[C@H](NC(=O)CN)C(=O)O [Gly-Ala, glycyl-L-alanine] (H-Gly-Ala-OH)",significant stimulation,
NCC(=O)O [glycine],significant stimulation,increased linearly with increasing concentration
"NCC(=O)NCC(=O)O [Gly-Gly, glycyl-glycine] (H-Gly-Gly-OH)",significant stimulation,
C[C@H](N)C(=O)O [alanine],significant stimulation,increased linearly with increasing concentration
